The term EC50 denotes the concentration giving half of the maximal effect. Broadly, the Kd is the constant that tells how readily two partners part at equilibrium.

The record followed here is US20230129258A1, “HETEROTANDEM BICYCLIC PEPTIDE COMPLEXES” (BicycleTx Limited, priority 2019, published 2023).

Read-outs that look alike come from different tables or passages of the source. Starred links: 1 amine or outer side, 2 acyl side, 3 side chain; linkers in the order of their positions; H or OH if unused. Positions of bridges follow the written chain, without caps; N, C: chain ends. Non-standard residues stand in square brackets, D forms with d. Chains are numbered I, II in the order given. X1 = O=C(CCOCCOCCOCCN(CCOCCOCCOCCn1cc(CCC(=O)[*:2])nn1)CCOCCOCCOCCn1cc(CCC(=O)[*:3])nn1)[*:1]; TATA = O=C(CC[*:1])N1CN(C(=O)CC[*:2])CN(C(=O)CC[*:3])C1; d1Nal = N[C@H](Cc1cccc2ccccc12)C(=O)O; Hyp = O=C(O)[C@@H]1C[C@@H](O)CN1; hArg = N=C(N)NCCCC[C@H](N)C(=O)O; tBuAla = CC(C)(C)C[C@H](N)C(=O)O; Nle = CCCC[C@H](N)C(=O)O

One data set has as its target CD137 (Homo sapiens, UniProt Q07011). In words: CD137 reporter assay (Promega CD137 luciferase reporter, Jurkat cells) in co-culture with Nectin-4-expressing tumor cells. The data set is classed as cell-based. The arrangement: host or cells: Jurkat reporter cells. Conditions: for EC50: Arithmetic mean EC50 (nM).
Data set [1] can be described thus: Pharmacokinetics in cynomolgus monkey. As to conditions: plasma. It is filed as in vivo. The method, then: Serial bleeding (about 1.2 ml blood/time point) was performed from a peripheral vessel from restrained, non-sedated animals at each time point into a commercially available tube containing Potassium (K2) EDTA*2H2O (0.85-1.15 mg) on wet ice and processed for plasma. Samples were centrifuged (3,000×g for 10 minutes at 2 to 8° C.) immediately after collection. 0.1 mL plasma was transferred into labelled polypropylene micro-centrifuge tubes. 5-fold of the precipitant including internal standard 100 ng/mL Labetalol & 100 ng/mL dexamethasone & 100 ng/mL tolbutamide & 100 ng/mL Verapamil & 100 ng/mL Glyburide & 100 ng/mL Celecoxib in MeOH was immediately added into the plasma, mixed well and centrifuged at 12,000 rpm for 10 minutes at 2 to 8° C. Samples of supernatant were transferred into the pre-labeled polypropylene microcentrifuge tubes, and frozen over dry ice. The samples were stored at −60° C. or below until LC-MS/MS analysis. An aliquot of 40 μL calibration standard, quality control, single blank and double blank samples were added to the 1.5 mL tube. Each sample (except the double blank) was quenched with 200 μL IS1 respectively (double blank sample was quenched with 200 μL MeOH with 0.5% tritonX-100), and then the mixture was vortex-mixed well (at least 15 s) with vortexer and centrifuged for 15 min at 12000 g, 4° C. A 10 μL supernatant was injected for LC-MS/MS analysis using an Orbitrap Q Exactive in positive ion mode to determine the concentrations of analyte. Plasma concentration versus time data were analyzed by non-compartmental approaches using the Phoenix WinNonlin 6.3 software program. C0, CI, Vdss, T½, AUC(0-last), AUC(0-inf), MRT(0-last), MRT(0-inf) and graphs of plasma concentration versus time profile were reported.

Another data set has as its system MC38 tumors. In words: Anti-tumor activity of BCY13272 in syngeneic MC38 tumor model with re-challenge. The data set is classed as in vivo, C57BL/6J-hCD137 mice. Conditions: for complete responders: 6 doses, day 28. How it is done: 6-8 week old female C57BL/6J-hCD137 mice [B-hTNFRSF9(CD137) mice; Biocytogen] were implanted subcutaneously with 1×10^6 MC38 cells. Mice were randomized into treatment groups (n=6/cohort) when average tumor volumes reached around 80 mm^3 and were treated with vehicle (25 mM histidine, 10% sucrose, pH7) intravenously (IV), 8 mg/kg BCY13272, 0.9 mg/kg BCY13272 and 0.1 mg/kg BCY13272 IV. All treatments were given twice a week (BIW) for 6 doses in total. Tumor growth was monitored until Day 28 from treatment initiation. Complete responder animals (n=7) were followed until day 62 after treatment initiation and re-challenged with an implantation of 2×10^6 MC38 tumor cells and tumor growth was monitored for 28 days. In parallel, naïve age-matched control huCD137 C57Bl/6 mice (n=5) were implanted with 2×10^6 MC38 tumor cells monitored for 28 days.

A further data set deals with human EphA2 (Homo sapiens, UniProt P29317). In words: SPR (Biacore) binding to immobilized human EphA2. The method, then:
Biacore experiments were performed to determine ka (M^−1s^−1), kd (s^−1), KD (nM) values of BCY13272 binding to human EphA2 protein.
EphA2 were biotinylated with EZ-Link™ Sulfo-NHS-LC-Biotin for 1 hour in 4 mM sodium acetate, 100 mM NaCl, pH 5.4 with a 3× molar excess of biotin over protein. The degree of labelling was determined using a Fluorescence Biotin Quantification Kit (Thermo) after dialysis of the reaction mixture into PBS. For analysis of peptide binding, a Biacore T200 instrument was used with a XanTec CMD500D chip. Streptavidin was immobilized on the chip using standard amine-coupling chemistry at 25° C. with HBS-N (10 mM HEPES, 0.15 M NaCl, pH 7.4) as the running buffer. Briefly, the carboxymethyl dextran surface was activated with a 7 min injection of a 1:1 ratio of 0.4 M 1-ethyl-3-(3-dimethylaminopropyl) carbodiimide hydrochloride (EDC)/0.1 M N-hydroxy succinimide (NHS) at a flow rate of 10 μl/min. For capture of streptavidin, the protein was diluted to 0.2 mg/ml in 10 mM sodium acetate (pH 4.5) and captured by injecting 120 μl onto the activated chip surface. Residual activated groups were blocked with a 7 min injection of 1 M ethanolamine (pH 8.5):HBS-N (1:1). Buffer was changed to PBS/0.05% Tween 20 and biotinylated EphA2 was captured to a level of 500-1500 RU using a dilution of protein to 0.2 μM in buffer. […]
(SPR reads the build-up and loss of mass on a sensor chip optically.)

CD137, sequence (Q07011 24-255): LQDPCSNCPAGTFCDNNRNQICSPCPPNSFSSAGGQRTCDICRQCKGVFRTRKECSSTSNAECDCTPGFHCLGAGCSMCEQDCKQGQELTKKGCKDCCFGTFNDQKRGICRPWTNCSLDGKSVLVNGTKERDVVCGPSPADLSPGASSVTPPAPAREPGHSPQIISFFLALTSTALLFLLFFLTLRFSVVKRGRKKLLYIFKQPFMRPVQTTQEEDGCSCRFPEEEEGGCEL
human EphA2, sequence (P29317 24-976): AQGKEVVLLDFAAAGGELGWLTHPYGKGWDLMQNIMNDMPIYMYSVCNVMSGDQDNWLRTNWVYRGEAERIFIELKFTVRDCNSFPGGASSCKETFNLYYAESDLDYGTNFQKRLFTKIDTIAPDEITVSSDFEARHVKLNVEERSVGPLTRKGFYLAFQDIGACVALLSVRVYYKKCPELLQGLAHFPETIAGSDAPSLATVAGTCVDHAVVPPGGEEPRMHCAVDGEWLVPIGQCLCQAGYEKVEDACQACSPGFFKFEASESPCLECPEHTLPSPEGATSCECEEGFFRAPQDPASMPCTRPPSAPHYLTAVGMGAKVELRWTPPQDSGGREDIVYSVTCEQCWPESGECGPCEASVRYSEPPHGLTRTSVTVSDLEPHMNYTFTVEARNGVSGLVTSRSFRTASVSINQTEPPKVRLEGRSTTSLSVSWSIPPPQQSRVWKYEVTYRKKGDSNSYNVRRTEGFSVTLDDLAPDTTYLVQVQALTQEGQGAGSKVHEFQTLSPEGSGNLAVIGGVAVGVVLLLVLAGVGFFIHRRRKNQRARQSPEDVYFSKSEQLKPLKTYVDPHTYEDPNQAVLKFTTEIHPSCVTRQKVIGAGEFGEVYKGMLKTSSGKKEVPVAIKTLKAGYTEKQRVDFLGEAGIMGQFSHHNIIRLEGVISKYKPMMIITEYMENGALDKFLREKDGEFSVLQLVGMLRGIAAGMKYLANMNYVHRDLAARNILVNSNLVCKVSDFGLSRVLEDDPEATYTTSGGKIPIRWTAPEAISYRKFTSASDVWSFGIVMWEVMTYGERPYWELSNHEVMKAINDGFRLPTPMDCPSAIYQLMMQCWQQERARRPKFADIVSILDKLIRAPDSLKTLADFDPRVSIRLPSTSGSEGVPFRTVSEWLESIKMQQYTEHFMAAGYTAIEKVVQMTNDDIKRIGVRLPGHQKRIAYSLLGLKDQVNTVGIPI

Take `CCCC[C@@H]1NC(=O)[C@H](Cc2ccc(O)cc2)NC(=O)[C@@H]2CCCN2C(=O)[C@H](CC(=O)O)NC(=O)[C@H](C)NC(=O)[C@H](Cc2ccccc2)NC(=O)[C@@H]2CSCCC(=O)N3CN(CN(C3)C(=O)CCSC[C@@H](C(=O)N[C@@H](C)C(N)=O)NC1=O)C(=O)CCSC[C@H](NC(C)=O)C(=O)N[C@@H](CC(C)(C)C)C(=O)N1CCC[C@H]1C(=O)N[C@@H](CCC(=O)O)C(=O)N[C@H](CCCCNC(=O)CCc1cn(CCOCCOCCOCCN(CCOCCOCCOCCC(=O)N[C@H]3CSCCC(=O)N4CN5CN(C4)C(=O)CCSC[C@H](NC(=O)[C@@H](CC(=O)O)NC(=O)[C@H](Cc4cccc6ccccc46)NC(=O)[C@@H]4CCCN4C3=O)C(=O)N[C@@H](CCSC)C(=O)N[C@@H](CCCCNC(=N)N)C(=O)N[C@@H](CC(=O)O)C(=O)N[C@@H](Cc3c[nH]c4ccccc34)C(=O)N[C@@H](CO)C(=O)N[C@@H]([C@@H](C)O)C(=O)N3CCC[C@H]3C(=O)N3C[C@H](O)C[C@H]3C(=O)N[C@@H](Cc3c[nH]c4ccccc34)C(=O)N[C@H](C(N)=O)CSCCC5=O)CCOCCOCCOCCn3cc(CCC(=O)NCCCC[C@H]4NC(=O)[C@H](CCC(=O)O)NC(=O)[C@@H]5CCCN5C(=O)[C@H](CC(C)(C)C)NC(=O)[C@@H](NC(C)=O)CSCCC(=O)N5CN6CN(C5)C(=O)CCSC[C@H](NC(=O)[C@H](Cc5ccc(O)cc5)NC(=O)[C@@H]5CCCN5C4=O)C(=O)N[C@@H](Cc4ccccc4)C(=O)N[C@@H](C)C(=O)N[C@@H](CC(=O)O)C(=O)N4CCC[C@H]4C(=O)N[C@@H](Cc4ccc(O)cc4)C(=O)N[C@@H](CCCC)C(=O)N[C@H](C(=O)N[C@@H](C)C(N)=O)CSCCC6=O)nn3)nn1)C(=O)N1CCC[C@H]1C(=O)N[C@@H](Cc1ccc(O)cc1)C(=O)N2` [BCY11863]: the half-maximal effective concentration (EC50) on CD137 (co-culture with CT26#7 (mouse)) stood at 0.14 ± 0.07 nM; on CD137 (co-culture with HT1376 (human), Table 1B), 0.52 ± 0.3 nM; at CD137 (co-culture with MC38#13 (mouse)), 0.31 ± 0.26 nM; on CD137 (co-culture with MDA-MB-468 (human)), 0.23 ± 0.01 nM; on CD137 (co-culture with NCI-H292 (human), Table 1B), 0.28 ± 0.2 nM; on CD137 (co-culture with NCI-H322 (human)) it was 0.33 ± 0.21 nM. This compound also yielded a concentration giving a half-maximal response (EC50) at CD137 (co-culture with T47D (human)) of 0.42 ± 0.24 nM. Besides, the “CD137 activation in CD137 reporter assay” value on CD137 (FIG. 1A, Nectin-4 expressing H292 cells) is listed as “induces strong CD137 activation”. Also, the “Fold improvement in EC50 over BCY10000 on same plate” value on CD137 (co-culture with NCI-H292) turned out to be 4.56 fold. On CD137 (co-culture with NCI-H292), the “Fold improvement in Emax over BCY10000 on same plate” value is 2.16 fold. On CD137 (co-culture with NCI-H292, Table 1A), the “Fold Induction over Background” value is 81 ± 29 fold. Besides, the Vd in data set [1] (0.93 mg/kg IV infusion (30 min), read-out: Vdss) is 0.62 L/kg; in data set [1] (0.97 mg/kg IV infusion (15 min), read-out: Vdss) it was 0.91 L/kg; in data set [1] (1 mg/kg IV infusion, n=2, read-out: volume of distribution at steady state (Vdss)), 0.62 L/kg; in data set [1] (9.4 mg/kg IV infusion (15 min), read-out: Vdss) it was 1.1 L/kg. Besides, the clearance in data set [1] (0.97 mg/kg IV infusion (15 min), read-out: Clp) came out at 4.8 mL/min/kg; in data set [1] (9.4 mg/kg IV infusion (15 min), read-out: Clp), 3.9 mL/min/kg. The half-life in data set [1] (0.97 mg/kg IV infusion (15 min), read-out: T1/2 (converted)) was 4.5 h; in data set [1] (9.4 mg/kg IV infusion (15 min), read-out: T1/2 (converted)), 8.9 h.
Take “I: A[hArg]DC[Hyp]LVNPLCLEP[d1Nal]WTC-NH2 / II: Ac-C[tBuAla]PE[dK]PYCFADPY[Nle]CA-NH2 / III: Ac-C[tBuAla]PE[dK]PYCFADPY[Nle]CA-NH2 (linker I:4-I:11-I:18, II:1-II:8-II:15, III:1-III:8-III:15 via TATA; linker I:N-II:5-III:5 via X1) [BCY13272]”: the complete responders with MC38 tumors (0.9 mg/kg IV BIW) is on record as 2 out of 6; in the data set with MC38 tumors (8 mg/kg IV BIW), 5 out of 6. In the data set with MC38 tumors (re-challenge day 62, monitored 28 days), the “tumor regrowth after MC38 re-challenge of complete responders” value is “no tumor regrowth”. On human EphA2, this compound displayed a Kd of 2 nM. Further, in data set [1] (9.2 mg/kg IV infusion (15 min), read-out: clearance), the clearance was 4.1 mL/min/kg. Besides, the Vd in data set [1] (9.2 mg/kg IV infusion (15 min), read-out: volume of distribution at steady state (Vdss)) came out at 0.82 L/kg. In addition, the half-life in data set [1] (IV infusion (15 min), 9.2 mg/kg, read-out: T1/2 (converted)) was 8.9 h; in data set [1] (IV infusion (15 min), dose 9.2 mg/kg, 8.9 mg/kg, read-out: terminal half life (converted)), 8.9 h.
